This passage reports GI50 and TGI results from PubChem BioAssay (NCI).

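Where inhibition never reached the appropriate level, the endpoint shown equals the highest concentration tested. Otherwise, values were interpolated linearly from a five-concentration, 48-hour dose response in 96-well plates. GI50 is the concentration that inhibits growth by half. TGI marks complete inhibition of growth.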

Among the test systems are A498 renal; BT-549 breast; CAKI-1 renal; HCT-15 colon; K-562 leukemia; NCI-H522 lung; OVCAR-3 ovarian; SN12C renal; SW-620 colon; UACC-62 melanoma.
What all share (test): NCI tumour cell line growth inhibition, 48 h

With `C=CC(=O)Nc1cccc(Nc2nc(Nc3ccc(OCCOC)cc3)ncc2F)c1`, the GI50 with A498 renal is 0.306 µM; with BT-549 breast, 0.718 µM; in the assay with CAKI-1 renal, 0.511 µM; in the assay on HCT-15 colon, 1.03 µM; with K-562 leukemia, 4.8 µM; in the assay on NCI-H522 lung, 1.78 µM. Also, the GI50 is 2.47 µM in the assay on OVCAR-3 ovarian, 1.77 µM with SN12C renal, 2.14 µM in the assay with SW-620 colon and 1.93 µM in the assay with UACC-62 melanoma. Besides, the TGI was 1.66 µM with A498 renal; 8.23 µM in the assay with BT-549 breast; 2.46 µM with CAKI-1 renal; 16.1 µM in the assay with HCT-15 colon; > 100 µM with K-562 leukemia; 8.14 µM in the assay with NCI-H522 lung. Also, the TGI with OVCAR-3 ovarian stood at 16.1 µM; with SN12C renal, 31.4 µM; with SW-620 colon, 22.3 µM; in the assay on UACC-62 melanoma, 12.9 µM.

For the molecule `COc1ccc(NC2=C(Br)C(=O)C(C)=C(C)C2=O)cc1`, the GI50 in the assay on A498 renal was 1.62 µM; in the assay with BT-549 breast, 11.8 µM; in the assay on CAKI-1 renal, 1.72 µM; in the assay on HCT-15 colon, 11.4 µM; with K-562 leukemia, 2.25 µM; in the assay with NCI-H522 lung, 12.7 µM. For the same molecule, the GI50 is 1.72 µM with OVCAR-3 ovarian, 11 µM with SN12C renal, 2.07 µM in the assay on SW-620 colon and 7.74 µM in the assay on UACC-62 melanoma. In addition, the TGI with A498 renal is 33.6 µM; in the assay with BT-549 breast it was 24.4 µM; in the assay with CAKI-1 renal, 3.11 µM; in the assay on HCT-15 colon, 27.7 µM; with K-562 leukemia, > 100 µM; with NCI-H522 lung it was 31.8 µM. Moreover, the TGI came to 3.13 µM in the assay with OVCAR-3 ovarian, 23.2 µM in the assay on SN12C renal, 4.54 µM in the assay on SW-620 colon and 20.7 µM with UACC-62 melanoma.

As for `COc1ccc2c(c1)C=CC(C#N)N2C(=O)c1ccccc1` (stereo unspecified), the GI50 with A498 renal, in the assay on CAKI-1 renal, in the assay with HCT-15 colon, in the assay on K-562 leukemia, in the assay with NCI-H522 lung and in the assay with OVCAR-3 ovarian was < 0.01 µM in each case. Further, the figures for the GI50 with SN12C renal, in the assay with SW-620 colon and in the assay with UACC-62 melanoma were < 0.0119 µM, < 0.01 µM and < 0.01 µM, respectively. For the same molecule, the TGI in the assay with A498 renal is 0.0825 µM; in the assay with BT-549 breast, > 67.5 µM; in the assay with CAKI-1 renal, > 100 µM; in the assay on HCT-15 colon, > 100 µM; in the assay with K-562 leukemia, > 100 µM; in the assay with NCI-H522 lung, 0.188 µM. Further, the TGI in the assay with SN12C renal, in the assay with SW-620 colon and in the assay with UACC-62 melanoma was > 100 µM each time.

On to `CC(=O)[CH-]C(C)=O.CC(=O)[CH-]C(C)=O.N=CC=N.[Sn+2]`, for which the GI50 is 9.97 µM with A498 renal; 2.76 µM in the assay with BT-549 breast; 2.54 µM in the assay with CAKI-1 renal; 2.7 µM in the assay with HCT-15 colon; 2.19 µM in the assay on K-562 leukemia; 0.911 µM in the assay with NCI-H522 lung. The GI50 with OVCAR-3 ovarian was 2.86 µM; with SN12C renal it was 2.9 µM; in the assay with SW-620 colon, 1.71 µM; in the assay with UACC-62 melanoma it was 2.17 µM. Moreover, the TGI in the assay on A498 renal came to 22.4 µM; in the assay on BT-549 breast, 8.25 µM; with CAKI-1 renal, 7.23 µM; with HCT-15 colon, 7.14 µM; in the assay with K-562 leukemia it was 13 µM; in the assay with NCI-H522 lung, 2.13 µM. Besides, the TGI in the assay with OVCAR-3 ovarian stood at 9.13 µM; in the assay with SN12C renal, 9.14 µM; with SW-620 colon it was 3.11 µM; with UACC-62 melanoma, 5.85 µM.

Consider `CNC(=O)c1cc(Oc2ccc(NC(=O)Nc3ccc(Cl)c(OC(F)(F)F)c3)c(F)c2)ccn1`, for which the GI50 with A498 renal was 2.66 µM; with BT-549 breast, 3.17 µM; in the assay with CAKI-1 renal, 2.89 µM; with HCT-15 colon it was 1.58 µM; in the assay with K-562 leukemia it was 1.22 µM; with NCI-H522 lung it was 0.971 µM. The GI50 was 1.78 µM with OVCAR-3 ovarian, 2.05 µM in the assay on SN12C renal, 2.13 µM in the assay on SW-620 colon and 1.34 µM with UACC-62 melanoma. Also, the TGI in the assay on A498 renal was 11.4 µM; in the assay with BT-549 breast, 14 µM; in the assay with CAKI-1 renal, > 33.2 µM; in the assay on HCT-15 colon it was 18 µM; with K-562 leukemia it was 8.22 µM; in the assay on NCI-H522 lung, 14.8 µM. Besides, the TGI was 11 µM in the assay with OVCAR-3 ovarian, 23 µM with SN12C renal, > 33.2 µM in the assay with SW-620 colon and 10 µM with UACC-62 melanoma.

`Cc1ccc(C(=O)CC(Sc2cccc(Cl)c2Cl)c2ccc(Cl)cc2)cc1C` (stereo unspecified): the GI50 in the assay on A498 renal is 19.2 µM; in the assay on BT-549 breast, 24.5 µM; in the assay on CAKI-1 renal, 21.6 µM; in the assay on K-562 leukemia it was 27.2 µM; in the assay with NCI-H522 lung, 26.2 µM; in the assay on OVCAR-3 ovarian it was 15.4 µM. Also, the GI50 was 16.1 µM in the assay on SN12C renal, 17.8 µM with SW-620 colon and 21.2 µM in the assay on UACC-62 melanoma. For the same molecule, the TGI is 46.8 µM in the assay on A498 renal; 46.9 µM in the assay on BT-549 breast; 45.8 µM in the assay on CAKI-1 renal; > 100 µM in the assay on K-562 leukemia; 61.9 µM with NCI-H522 lung; 31.1 µM in the assay on OVCAR-3 ovarian. For the same molecule, the figures for the TGI in the assay with SN12C renal, with SW-620 colon and in the assay on UACC-62 melanoma were 32.7 µM, 36 µM and 57.6 µM, respectively.

With `Oc1ccc(Cc2ccccc2)c2cccnc12`, the GI50 with A498 renal is 25.6 µM; in the assay with BT-549 breast it was 2.33 µM; in the assay on CAKI-1 renal, 2.22 µM; in the assay on HCT-15 colon, 0.507 µM; in the assay with K-562 leukemia, 0.836 µM; with NCI-H522 lung it was 3.69 µM. In addition, the GI50 was 6.7 µM in the assay with OVCAR-3 ovarian, 2.61 µM with SN12C renal, 3.39 µM in the assay with SW-620 colon and 2.32 µM with UACC-62 melanoma. For the same molecule, the TGI in the assay on A498 renal is > 100 µM; in the assay with BT-549 breast, 26.7 µM; in the assay with CAKI-1 renal, 8.96 µM; in the assay on HCT-15 colon, 44.9 µM; in the assay on K-562 leukemia it was > 100 µM; in the assay with NCI-H522 lung it was 76 µM. For the same molecule, the TGI in the assay with OVCAR-3 ovarian is 37.6 µM; in the assay on SN12C renal, > 100 µM; in the assay with SW-620 colon it was 54.8 µM; in the assay with UACC-62 melanoma it was 6.04 µM.

Consider `Nc1ccc(SC23CC4CC(CC(C4)C2)C3)cc1`, for which the TGI with A498 renal, with BT-549 breast, in the assay with CAKI-1 renal, in the assay on HCT-15 colon, in the assay on K-562 leukemia and with NCI-H522 lung was > 100 µM each time. For the same molecule, the TGI with OVCAR-3 ovarian, in the assay on SN12C renal, with SW-620 colon and in the assay on UACC-62 melanoma was > 100 µM throughout.
